Data taken from BindingDB's records for patent US20250057848 (Neurim Pharmaceuticals (1991), 2025).

Target: Neurotensin receptor type 1 (Homo sapiens, UniProt P30989)
Test: Binding of Neurotensin to the NTSR1 Receptor
Text: However, the potency of GAL 475 at these receptors was lower than 1 micromolar and therefore not considered to be pharmacologically interesting. […] GAL475 was subsequently tested for PAM activity at the human NTS1 (FAST-0330I) and NTS2 (FAST-0331I) receptors, at 100-50,000 nanomolar concentrations.

Neurotensin receptor type 1, sequence (P30989 whole entry): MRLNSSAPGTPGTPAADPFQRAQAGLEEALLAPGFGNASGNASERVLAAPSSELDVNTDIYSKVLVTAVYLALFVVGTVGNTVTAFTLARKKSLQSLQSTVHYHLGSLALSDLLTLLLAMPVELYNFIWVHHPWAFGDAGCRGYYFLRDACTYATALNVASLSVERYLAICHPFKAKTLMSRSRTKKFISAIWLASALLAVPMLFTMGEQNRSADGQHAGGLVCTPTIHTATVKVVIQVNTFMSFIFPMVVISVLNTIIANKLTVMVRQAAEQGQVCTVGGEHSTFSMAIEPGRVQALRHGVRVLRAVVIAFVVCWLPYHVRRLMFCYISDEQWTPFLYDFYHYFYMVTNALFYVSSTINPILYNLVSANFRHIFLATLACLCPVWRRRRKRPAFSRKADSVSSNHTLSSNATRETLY

- EC50: 355 nM
SMILES: CCCNc1nc(NC)nc2c1NC(NC)N=C2NCC(C)(C)O (stereo unspecified) [US20250057848, Compound GAL-475]
